Tests used:
Test in all cases: Glasshouse peri-emergence herbicide test, damage to plant
Type in all cases: in vivo
Details in all cases: sprayed six days after sowing (peri-emergence), evaluated after 14 days; rate gai/ha: Prosulfocarb 2400, Flumioxazin 20, combination 2400 + 20
[1] = tested on: VERPE = Veronica persicae
Procedure: (§1) Seeds of a variety of test species were sown in standard soil. After cultivation for six days (peri-emergence) under controlled conditions in a glasshouse (at 24/16° C., day/night; 14 hours light; 65% humidity), the plants were sprayed with an aqueous spray solution comprising the technical active ingredient(s). The test plants were then grown in a glasshouse under controlled conditions in a glasshouse (at 24/16° C., day/night; 14 hours light; 65% humidity) and watered twice daily. After 14 days, the test was evaluated (100=total damage to plant; 0=no damage to plant).

AVEFA = Avena fatua = tested on: AVEFA = Avena fatua
Procedure: as §1

[2] = tested on: ALOMY = Alopecurus myosuroides
Procedure: as §1

POAAN = Poa annua = tested on: POAAN = Poa annua
Procedure: as §1

[3] = tested on: APESV = Apera spica-venti
Procedure: as §1

[4] = tested on: LOLMU = Lolium multiflorum
Procedure: as §1

GALAP = Galium aparine = tested on: GALAP = Galium aparine
Procedure: as §1

TRZAW = Tritcum aestivum = tested on: TRZAW = Tritcum aestivum
Procedure: as §1

HORVW = Hordeum vulgare = tested on: HORVW = Hordeum vulgare
Procedure: as §1

Structure (SMILES) | damage to plant (100=total damage; 0=no damage), VERPE [1] | damage to plant (100=total damage; 0=no damage), AVEFA (AVEFA = Avena fatua) | damage to plant (100=total damage; 0=no damage), ALOMY [2] | damage to plant (100=total damage; 0=no damage), POAAN (POAAN = Poa annua) | damage to plant (100=total damage; 0=no damage), APESV [3] | damage to plant (100=total damage; 0=no damage), LOLMU [4] | damage to plant (100=total damage; 0=no damage), GALAP (GALAP = Galium aparine) | damage to plant (100=total damage; 0=no damage), TRZAW (TRZAW = Tritcum aestivum) | damage to plant (100=total damage; 0=no damage), HORVW (HORVW = Hordeum vulgare)
CCCN(CCC)C(=O)SCc1ccccc1 [Prosulfocarb, prosulfocarb] | 88 | 55 | 78 | 0 | 95 | 30 | 78 |  | 
C#CCN1C(=O)COc2cc(F)c(N3C(=O)C4=C(CCCC4)C3=O)cc21 [Flumioxazin, flumioxazin] | 99 | 8 | 33 | 5 | 60 | 0 | 73 | 8 | 0

From patent US20100048398A1, “HERBICIDAL COMBINATION” (SYNGENTA CROP PROTECTION, INC., priority 2006, published 2010)
